Legend:
[1] = test system: LDL; test: Protection against LDL oxidation by copper (conjugated diene formation); assay type: biochemical; settings: 10^−4M; for diene oxidation rate: FIG. 7b
Protocol: Unless otherwise indicated, the reagents were from Sigma (St Quentin, France). LDL were prepared according to the method described by Lebeau et al. (Lebeau, Furman et al. 2000).
The solutions of test compounds were prepared at 10^−2 M concentration in bicarbonate buffer (pH 9) and diluted in PBS to obtain final concentrations ranging from 0.1 to 100 μM
Prior to oxidation, EDTA was removed from the LDL preparation by dialysis. Oxidation then took place at 30° C. by adding 100 μl of 16.6 μM CuSO4 solution to 160 μL of LDL (125 μg protein/ml) and 20 μl of a test compound solution. The formation of dienes, the species under observation, was followed by measuring optical density at 232 nm in the samples treated with the compounds in the presence or absence of copper. Optical density at 232 nm was measured every 10 minutes for 8 hours in a thermostated spectrophotometer (Tecan Ultra 380). The analyses were performed in triplicate. The compounds were considered to have antioxidant activity when they induced a longer lag phase and reduced the rate of oxidation and the amount of dienes formed in comparison with the control sample.

[2] = target: T1, PPARα (Homo sapiens, UniProt Q07869); test: PPARα/Gal4 transactivation system in COS-7 cells; assay type: cell-based; settings: 24 hours
T1 construct: expressed in transfected cells; host or cells: COS-7 cells
T1 sequence (Q07869 239-466 limits assumed): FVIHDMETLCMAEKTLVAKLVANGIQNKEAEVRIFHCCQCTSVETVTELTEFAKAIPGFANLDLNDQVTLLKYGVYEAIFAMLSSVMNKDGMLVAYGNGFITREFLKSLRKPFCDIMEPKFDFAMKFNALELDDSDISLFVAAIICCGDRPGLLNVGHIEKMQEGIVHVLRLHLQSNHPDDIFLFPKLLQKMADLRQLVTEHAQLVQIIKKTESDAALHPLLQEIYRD
Protocol: (§1) COS-7 cells were incubated with different concentrations of the inventive compounds for 24 hours. The results are expressed as the induction factor (ratio of luminescent signal obtained with the compound and that observed without the compound) after the different treatments.
(§2) PPAR activation was tested in vitro in RK13 epitheloid or COS-7 cell lines by measuring the transcriptional activity of chimeras composed of the DNA binding domain of the yeast gal4 transcription factor and the ligand binding domain of the different PPARs. These latter results were then confirmed in cell lines according to the following protocols:
(§3) RK13 cells were from ECACC (Porton Down, UK), COS-7 cells were from the ATCC (American Type Culture Collection) and were grown in DMEM medium supplemented with 10% (VN) fetal calf serum, 100 U/ml penicillin (Gibco, Paisley, UK) and 2 mM L-glutamine (Gibco, Paisley, UK). The culture medium was changed every two days. Cells were kept at 37° C. in a humidified 95% air/5% CO2 atmosphere.
(§4) The plasmids pG5TkpGL3, pRL-CMV, pGal4-hPPARα, pGal4-hPPARγ, pGal4-hPPARδ and pGal4-φ have been described by Raspe, Madsen et al. (1999). The pGal4-mPPARα, pGal4-hPPARγ and pGal4-hPPARδ constructs were obtained by cloning into the pGal4-φ vector of PCR-amplified DNA fragments corresponding to the DEF domains of the human PPARα, PPARγ and PPARδ nuclear receptors.
(§5) RK13 cells were seeded in 24-well culture dishes at 5×10^4 cells/well, COS-7 cells in 96-well culture dishes at 5×10^4 cells/well and transfected for 2 hours with the reporter plasmid pG5TkpGL3 (50 ng/well), the expression vectors pGal4-φ, pGal4-mPPARα, pGal4-hPPARα, pGal4-hPPARγ, pGal4-hPPARδ (100 ng/well) and the transfection efficiency control vector pRL-CMV (1 ng/well) according to the previously described protocol (Raspe, Madsen et al. 1999), then incubated for 36 hours with the test compounds. At the end of the experiment, the cells were lysed (Gibco, Paisley, UK) and luciferase activity was determined with a Dual-Luciferase™ Reporter Assay System kit (Promega, Madison, Wis., USA) for RK13 cells and Steady Glow Luciferase (Promega) for COS-7 cells according to the supplier's instructions as previously described. The protein content of the cell extracts was then measured with the Bio-Rad Protein Assay (Bio-Rad, Munich, Germany) as directed by the supplier.

[3] = target: T2, PPARγ (Homo sapiens, UniProt P37231); test: PPARγ/Gal4 transactivation system in COS-7 cells; assay type: cell-based; settings: 24 hours
T2 construct: expressed in transfected cells; host or cells: COS-7 cells
T2 sequence (P37231 238-503 limits assumed): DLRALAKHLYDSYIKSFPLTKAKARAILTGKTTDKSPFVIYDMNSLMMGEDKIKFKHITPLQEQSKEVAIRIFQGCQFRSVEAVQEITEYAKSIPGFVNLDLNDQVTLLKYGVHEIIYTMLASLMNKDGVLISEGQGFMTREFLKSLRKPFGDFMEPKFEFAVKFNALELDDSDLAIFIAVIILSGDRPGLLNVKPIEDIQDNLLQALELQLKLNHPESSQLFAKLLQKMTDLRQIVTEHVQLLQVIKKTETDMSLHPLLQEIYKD
Protocol: as §1, §2, §3, §4, §5

[4] = test system: Apo E2/E2 transgenic mice; test: Effects on triglyceride and cholesterol metabolism in Apo E2/E2 transgenic mice; assay type: in vivo; settings: gavage, 50 mg/kg/day, seven days
Protocol: FIGS. 19a, 19b, 19c, 19d, 20a, 20b, 20c and 20d illustrate the effects of treatment with compound 2 (Cpd2), compound 13 (Cpd13), compound 33 (Cpd33) and compound 39 (Cpd39) on triglyceride and cholesterol metabolism in Apo E2/E2 transgenic mice treated by gavage with the compound at a dose of 50 mg/kg/day, for seven days.
Apo E2/E2 transgenic mice were housed in a 12-hour light/dark cycle at a constant temperature of 20±3° C. After a 1-week acclimatization period, the mice were weighed and divided into groups of 6 animals selected such that the distribution of body weight was uniform. The test compounds were suspended in carboxymethylcellulose and administered by gastric lavage at the indicated doses, once a day for 7 days. Animals had access to food and water ad libitum. At the end of the experiments, animals were weighed and sacrificed under anesthesia. Blood was collected on EDTA. Plasma was isolated by centrifugation at 3000 rpm for 20 minutes. Liver samples were removed and stored frozen in liquid nitrogen for later analysis.
Lipid concentrations in plasma (total cholesterol and free cholesterol, triglycerides and phospholipids) were determined by a colorimetric assay (Boehringer, Mannheim, Germany) according to the supplier's instructions. Plasma concentrations of apolipoproteins AI, AII and CIII were determined as previously described (Raspe et al. 1999, Asset G et al., Lipids, 1999).

[5] = test system: monocyte-derived dendritic cells; test: Differentiation of monocytes to dendritic cells (flow cytometry of surface markers); assay type: cell-based
Protocol: Compound 39 (10^−6 M) was added at D0 of differentiation of monocytes to dendritic cells. After six days of differentiation (in the presence of cytokines GM-CSF and IL-4), the dendritic cells were analyzed by flow cytometry.
For these experiments, blood samples from volunteer donors (Etablissement Francais du Sang) and monocytes were isolated by a standard protocol using anti-CD14-conjugated magnetic beads (Miltenyi Biotec). Monocytes isolated in this manner were then induced to differentiate by incubation for 6 days in culture medium containing a mixture of cytokines GM-CSF and IL-4 (20 ng/ml for each cytokine).
Compound 39 was added at t=0 and acquisition of the dendritic cell phenotype was followed by expression of the cell surface marker CD1a.

[6] = target: T3, PPARδ (Homo sapiens, UniProt Q03181); test: PPARδ/Gal4 transactivation system in COS-7 cells; assay type: cell-based; settings: 24 hours
T3 construct: expressed in transfected cells; host or cells: COS-7 cells
T3 sequence (Q03181 211-439 limits assumed): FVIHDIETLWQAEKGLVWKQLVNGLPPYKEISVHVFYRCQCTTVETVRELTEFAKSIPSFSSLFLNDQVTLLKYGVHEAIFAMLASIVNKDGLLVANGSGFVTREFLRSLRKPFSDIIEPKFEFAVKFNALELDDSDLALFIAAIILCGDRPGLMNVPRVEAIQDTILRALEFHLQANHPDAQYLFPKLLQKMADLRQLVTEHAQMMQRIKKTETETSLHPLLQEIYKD
Protocol: as §1, §2, §3, §4, §5

[7] = compound added at t=0, six days differentiation, data not shown
[8] = FIG. 7a, absence of compounds 67.3 minutes

Induction factor ([2]; 0.001 μM)	Induction factor ([2]; 0.003 μM)	Induction factor ([2]; 0.01 μM)	Induction factor ([2]; 0.03 μM)	Induction factor ([2]; 0.1 μM)	Induction factor ([2]; 0.3 μM)	Induction factor ([2]; 1 μM)	Induction factor ([3]; 0.001 μM)	Induction factor ([3]; 0.003 μM)	Induction factor ([3]; 0.01 μM)	Induction factor ([3]; 0.03 μM)	Induction factor ([3]; 0.1 μM)	Induction factor ([3]; 0.3 μM)	Induction factor ([3]; 1 μM)	Induction factor ([3]; 3 μM)	Induction factor ([3]; 10 μM)	Structure (SMILES)	plasma cholesterol [4]	plasma triglycerides [4]	lag phase [1, 8]	diene oxidation rate ([1]; absence of compounds 2.5)	also measured
1.08	1.17	3.19	7.69	9.68	10.16	10.42	0.95	0.96	1.56	3.06	4.08	4.86	4.78	4.72	–	CCCCCCSc1c(C)cc(C(=O)/C=C/c2cc(C)c(OC(C)(C)C(=O)O)c(C)c2)cc1C [compound 39, 1-(4-Hexylthio-3,5-dimethylphenyl)-3-(4-carboxydimethylmethyloxy-3,5-dimethylphenyl)prop-2-en-1-one]	decrease	decrease	–	–	lag phase ([1]; FIG. 8a, absence of compounds 67.3 minutes): 133 min; rate of LDL oxidation ([1]; FIG. 8b, absence of compounds 2.5): 1.2 nmol/min/mg; total amount of dienes formed ([1]; FIG. 8c, absence of compound 432.3): 371.2 nmol/mg; Induction factor ([2]; 3 μM): 9.96; expression of CD1a at the cell surface ([5]; 10^−6 M added at D0, six days with GM-CSF and IL-4): almost totally inhibiting; CD86 expression [5, 7]: slightly increased; expression of the costimulation molecule CD80 [5, 7]: reduced, to a lesser extent
5.23	15.18	19.53	19.71	19.17	20.82	19.97	1.18	1.61	2.65	3.54	4.88	5.95	6.93	7.99	6.30	Cc1cc(/C=C/C(=O)c2ccc(Oc3ccccc3)cc2)cc(C)c1OC(C)(C)C(=O)O [compound 33, 1-(4-Phenyloxyphenyl)-3-(4-carboxydimethylmethyloxy-3,5-dimethylphenyl)prop-2-en-1-one]	decrease	decrease	148 min	1.4 nmol/min/mg of LDL	total amount of dienes formed ([1]; FIG. 7c, absence of compounds 432.5): 399 nmol/mg of LDL; Induction factor ([6]; 0.001 μM): 1.17; Induction factor ([6]; 0.003 μM): 1.23; Induction factor ([6]; 0.01 μM): 1.87; Induction factor ([6]; 0.03 μM): 5.29; Induction factor ([6]; 0.1 μM): 15.01; Induction factor ([6]; 0.3 μM): 33.89; Induction factor ([6]; 1 μM): 74.09; Induction factor ([6]; 3 μM): 90.84
1.10	1.58	4.99	10.89	16.87	15.95	17.05	0.99	1.15	1.67	2.18	3.01	3.66	4.03	3.89	–	CSc1c(C)cc(C(=O)/C=C/c2cc(C)c(OC(C)(C)C(=O)O)c(C)c2)cc1C [compound 13, 1-(4-Methylthio-3,5-dimethylphenyl)-3-(4-carboxydimethylmethyloxy-3,5-dimethylphenyl)prop-2-en-1-one]	decrease	decrease	219 min	1.5 nmol/min/mg of LDL	Induction factor ([6]; 0.01 μM): 1.50; Induction factor ([6]; 0.03 μM): 2.17; Induction factor ([6]; 0.1 μM): 3.37; Induction factor ([6]; 0.3 μM): 14.00; Induction factor ([6]; 1 μM): 28.75; Induction factor ([6]; 3 μM): 27.72
–	–	–	–	–	–	1.67	–	–	–	–	–	–	2.00	–	5.82	Cc1cc(C(=O)/C=C/c2cc(C)c(OC(C)(C)C(=O)O)c(C)c2)cc(C)c1O [compound 4, 1-(4-Hydroxy-3,5-dimethylphenyl)-3-(4-carboxydimethylmethyloxy-3,5-dimethylphenyl)prop-2-ene-1-one]	–	–	–	–	lag phase ([1]; FIG. 2a, copper alone 132 minutes): 401 min; rate of diene formation ([1]; FIG. 2b, copper alone 2.2): 0.2 nmol/min/mg; total amount of dienes formed ([1]; FIG. 2c, copper alone 511): 138 nmol/mg; Induction factor ([2]; 10 μM): 9.92

From patent publication US7547729B2, “1,3-diphenylprop-2-en-1-one derivative compounds, preparation method thereof and uses of same” (Genfit, priority 2004, dated 2009)
